ChEMBL document CHEMBL1150321
Calls of active or inactive are those of the source. No cut-off for these calls is given here.

Tests used:
[1] = target: Baculoviral IAP repeat-containing protein 2 (Homo sapiens) (UniProt Q13490); experiment: Binding affinity to human BIR3 domain of cIAP1 at 150 uM after 30 mins by photoaffinity labeling assay in presence of (S)-2-((2S,3R)-3-Amino-2-hydroxy-4-phenyl-butyrylamino)-4-methyl-pentanoic acid methyl ester
[2] = target: Baculoviral IAP repeat-containing protein 2 (Homo sapiens) (UniProt Q13490); experiment: Binding affinity to human BIR3 domain of cIAP1 by fluorescence polarization assay
[3] = target: Baculoviral IAP repeat-containing protein 2 (Homo sapiens) (UniProt Q13490); experiment: Binding affinity to human BIR3 domain of cIAP1 by photoaffinity labeling assay in presence of (S)-2-((2S,3R)-3-Amino-2-hydroxy-4-phenyl-butyrylamino)-4-methyl-pentanoic acid methyl ester

Sequence of Baculoviral IAP repeat-containing protein 2 (Homo sapiens) (Q13490 whole entry, looked up, the tested form may be a part): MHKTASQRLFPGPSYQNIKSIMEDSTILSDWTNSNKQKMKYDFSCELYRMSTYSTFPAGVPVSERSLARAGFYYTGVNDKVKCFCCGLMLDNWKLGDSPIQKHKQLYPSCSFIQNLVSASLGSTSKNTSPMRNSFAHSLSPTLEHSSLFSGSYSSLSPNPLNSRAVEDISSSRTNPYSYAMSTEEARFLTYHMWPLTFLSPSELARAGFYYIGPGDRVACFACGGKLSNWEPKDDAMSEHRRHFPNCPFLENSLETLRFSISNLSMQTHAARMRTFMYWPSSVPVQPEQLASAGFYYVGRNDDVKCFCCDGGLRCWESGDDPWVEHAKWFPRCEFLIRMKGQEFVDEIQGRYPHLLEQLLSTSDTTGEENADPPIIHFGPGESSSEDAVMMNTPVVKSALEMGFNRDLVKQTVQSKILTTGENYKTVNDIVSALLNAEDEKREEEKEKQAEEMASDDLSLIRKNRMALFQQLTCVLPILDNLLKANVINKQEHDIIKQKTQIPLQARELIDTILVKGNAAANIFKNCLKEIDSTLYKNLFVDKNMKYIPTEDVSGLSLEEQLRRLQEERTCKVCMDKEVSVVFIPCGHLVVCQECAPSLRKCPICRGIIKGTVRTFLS

SMILES | Activity [1] | Activity [2] | Activity [3]
CC(C)C[C@H](NC(=O)[C@@H](O)[C@H](N)Cc1ccccc1)C(=O)OCCNS(=O)(=O)c1cccc2c(N=[N+]=[N-])cccc12 | Active |  | 
CC(C)C[C@H](NC(=O)[C@@H](O)[C@H](N)Cc1ccccc1)C(=O)OCCNS(=O)(=O)c1cccc2c(N(C)C)cccc12 |  | Active | Active
